Reference: the NIST ThermoML archive (doi:10.1021/je200477s)

Test: wn = mass fraction of the nth substance listed
Conditions: 101 kPa, Liquid, Pycnometric method

CCCCn1cc[n+](C)c1.COS(=O)(=O)[O-] [1-butyl-3-methylimidazolium methyl sulfate] + O
mass density [kg/m3]
Conditions | w1 = 0.1501 | w1 = 0.2002 | w1 = 0.2991 | w1 = 0.4993 | w1 = 0.6519 | w1 = 0.8012 | w1 = 0.8701 | w1 = 0.9325 | w1 = 1
293.15 K | 1025.8 | 1035.9 | 1056.1 | 1100.2 | 1134.9 | 1169.4 | 1184.8 | 1198.2 | 1211.7
295.15 K | 1025.1 | 1035.2 | 1055.2 | 1099 | 1133.5 | 1168 | 1183.4 | 1196.8 | 1210.4
297.15 K | 1024.4 | 1034.4 | 1054.3 | 1097.7 | 1132.2 | 1166.6 | 1182.1 | 1195.5 | 1209.1
299.15 K | 1023.7 | 1033.6 | 1053.3 | 1096.5 | 1130.7 | 1165.2 | 1180.7 | 1194.1 | 1207.7
301.15 K | 1022.9 | 1032.8 | 1052.3 | 1095.2 | 1129.4 | 1163.8 | 1179.3 | 1192.8 | 1206.4
303.15 K | 1022.2 | 1031.9 | 1051.3 | 1093.9 | 1128 | 1162.4 | 1177.9 | 1191.4 | 1205.1

O [water] + CCCCn1cc[n+](C)c1.COS(=O)(=O)[O-]
w2 = 0
Conditions | mass density [kg/m3]
293.15 K | 998.3
295.15 K | 997.9
297.15 K | 997.4
299.15 K | 996.9
301.15 K | 996.3
